A short description of data set [1]: Hygroscopicity study by dynamic vapor sorption (DVS). Conditions: 25° C./80% RH. The class given is physicochemical. As for the experimental part:
Dynamic Vapor Sorption (DVS)
Instrument model: SMS DVS Advantage dynamic vapor sorption analyzer
Test conditions: samples (10-15 mg) were disposed in the DVS sample tray for testing.
The detailed DVS parameters were as follows:
Balance: dm/dt=0.01%/min (shortest: 10 min, longest: 180 min)
Drying: drying for 120 min at 0% RH
RH (%) test step range: 0%-90%-0%
The hygroscopicity evaluation is classified as follows:
SMS DVS Advantage dynamic vapor sorption analyzer

The nature of data set [2]: Solid stability test under high humidity and light irradiation conditions (XRPD, HPLC). The class given is physicochemical. As for the experimental part: High Performance Liquid Chromatograph (HPLC)
The bottles containing samples placed under high humidity condition were sealed with aluminum foil. Small holes were made in the aluminum foil to ensure that the samples can fully contact with the ambient air. The samples were tested on the 10th day. The bottles containing samples placed under light condition were left open and the samples were exposed to a light source, and tested after being irradiated enough energy. The test results were compared with the initial test results on day 0.

Data set [3] can be described thus: Long-term crystal form stability test under high temperature and high humidity conditions (XRPD). The class given is physicochemical. To be noted: 40° C., 75% RH, 10th day and 31th day.
The conditions of data set [4]: cited from earlier work.
The next data set deals with breast cancer patients. Conditions: intramuscular injection; cited from earlier work.

Regarding `CC/C(=C(/c1ccc(/C=C/C(=O)O)cc1)c1[nH]c2ccccc2c1Cl)c1ccc(F)cc1Cl`, in data set [1], the Hygroscopicity classification entry is given as “almost non-hygroscopic”. For the same molecule, in data set [1] (DVS), the “ΔW, weight increase caused by hygroscopy” value came out at 0.1687%. In data set [2] (0 day), the “Crystal form (XRPD)” value was “Crystal form A”, the “Purity (%)” value worked out at 96.99%, the “Related substance at relative retention time 0.97 (HPLC)” value worked out at 0.21 and the “Related substance at relative retention time 1.02 (HPLC)” value worked out at 0.36. Besides, in data set [2] (0 day), the “Related substance at relative retention time 1.05 (HPLC)” value stood at 0.30 and the “Total content of related substances (%)” value turned out to be 0.87%. In addition, the “Crystal form (XRPD)” value in data set [2] (High humidity (room temperature/relative humidity 92.5%, exposed), 10th day) is “Crystal form A”. In addition, in data set [2] (High humidity, 10 days), the “Related substance at relative retention time 0.97 (HPLC)” value is reported as 0.22, the “Related substance at relative retention time 1.02 (HPLC)” value is 0.23, the “Related substance at relative retention time 1.05 (HPLC)” value was found to be 0.31 and the “Total content of related substances (%)” value is given as 0.77%. Further, in data set [2] (Light irradiation), the “Purity (%)” value was determined as 101.09%, the “Related substance at relative retention time 0.88 (HPLC)” value is reported as 0.05, the “Related substance at relative retention time 0.97 (HPLC)” value was determined as 0.22 and the “Related substance at relative retention time 0.98 (HPLC)” value is reported as 0.17. Moreover, in data set [2] (Light irradiation), the “Related substance at relative retention time 1.02 (HPLC)” value is 0.23, the “Related substance at relative retention time 1.04 (HPLC)” value came out at 0.13, the “Related substance at relative retention time 1.05 (HPLC)” value is 0.17 and the “Total content of related substances (%)” value was 0.98%. The “Crystal form (XRPD)” value in data set [2] (Light irradiation (1ICH, exposed)) is “Crystal form A”. Further, in data set [2] (high humidity and light irradiation condition), the “Solid stability (conclusion)” value is “stable”. Moreover, the “Crystal form stability (conclusion)” value in data set [3] is “stable”.
In the case of `C[C@]12CC[C@@H]3c4ccc(O)cc4C[C@@H](CCCCCCCCC[S+]([O-])CCCC(F)(F)C(F)(F)F)[C@H]3[C@@H]1CC[C@@H]2O` (some centres unmarked) [fulvestrant], the oral bioavailability entry in data set [4] was “zero”. Besides, the “breast cancer patients who have shown a clinical response” value in the data set on breast cancer patients was “about 50%”.

These data come from patent publication US11034653B2, “Crystal form of estrogen receptor inhibitor and preparation method therefor” (LUOXIN PHARMACEUTICAL (SHANGHAI) CO., LTD., priority 2017, dated 2021).
